From patent publication US9695155B2, “Herbicidal substituted pyrimidinyloxy benzene compounds” (E. I. DU PONT DE NEMOURS AND COMPANY, priority 2013, dated 2017)

Legend:
barnyardgrass = assay: Test A preemergence; assay type: in vivo, Echinochloa crus-galli; conditions: Echinochloa crus-galli, pre-emergence, 240 h, read-out: Barnyardgrass plant response rating
How it was run: (§1)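 Visual 0–100 rating (100 = complete control) taken about 10 d post-treatment relative to untreated checks. Preemergence: directed soil spray on sown loam/sand pots. Postemergence: seedlings 2–10 cm, 1–2 leaf. Non-phytotoxic solvent formulation with surfactant.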

large (Lg) crabgrass [1] = assay: Test A preemergence; assay type: in vivo, Digitaria sanguinalis; conditions: Digitaria sanguinalis, pre-emergence, 240 h, read-out: Crabgrass, Large plant response rating
How it was run: as §1

pigweed = assay: Test A preemergence; assay type: in vivo, Amaranthus retroflexus; conditions: Amaranthus retroflexus, pre-emergence, 240 h, read-out: Pigweed plant response rating
How it was run: as §1

corn = assay: Test A preemergence; assay type: in vivo, Zea mays; conditions: Zea mays, pre-emergence, 240 h, read-out: Corn plant response rating
How it was run: as §1

large (Lg) crabgrass [2] = assay: Test A postemergence; assay type: in vivo, Digitaria sanguinalis; conditions: Digitaria sanguinalis, post-emergence, 240 h
How it was run: as §1

rice = assay: Test B flooded paddy test; assay type: in vivo, Oryza sativa; conditions: Oryza sativa; Flood, 250 g ai/ha; 0 to 100 scale where 0 is no effect and 100 is complete control; read-out: Plant response rating, Rice
How it was run: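 Post-emergence paddy-water application at the 2-leaf stage, with 3 cm flood kept for the whole test. Response was judged visually relative to controls after 13 to 15 greenhouse days, 0 indicating no effect and 100 complete control.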

Italian ryegrass = assay: Test C postemergence; assay type: in vivo, Lolium multiflorum; conditions: Lolium multiflorum, post-emergence
Excerpt: (§2) Seeds of plant species selected from blackgrass (Alopecurus myosuroides), Italian ryegrass (Lolium multiflorum), wheat, winter (winter wheat, Triticum aestivum), galium (catchweed bedstraw, Galium aparine), corn (Zea mays), large (Lg) crabgrass (Digitaria sanguinalis), giant foxtail (Setaria faberii), johnsongrass (Sorghum halepense), lambsquarters (Chenopodium album), morningglory (Ipomoea coccinea), yellow nutsedge (Cyperus esculentus), pigweed (Amaranthus retroflexus), ragweed (common ragweed, Ambrosia elatior), soybean (Glycine max), barnyardgrass (Echinochloa crus-galli), oilseed rape (Brassica napus), waterhemp (common waterhemp, Amaranthus rudis), kochia (Kochia scoparia), wild oat (Avena fatua), surinam grass (Brachiaria decumbens), foxtail, green (green foxtail, Setaria viridis), goosegrass (Eleusine indica), bromegrass, downy (downy bromegrass, Bromus tectorum), nightshade (eastern black nightshade, Solanum ptycanthum), cocklebur (common cocklebur, Xanthium strumarium), cupgrass, woolly (woolly cupgrass, Eriochloa villosa), bermudagrass (Cynodon dactylon), sunflower, (common oilseed sunflower, Helianthus annuus), Russian thistle (Salsola kali), and velvetleaf (Abutilon theophrasti) were planted into a blend of loam soil and sand and treated preemergence with test chemicals formulated in a non-phytotoxic solvent mixture which included a surfactant.
(§3) At the same time, plants selected from these crop and weed species and also barley, winter (winter barley, Hordeum vulgare), windgrass (Apera spica-venti), chickweed (common chickweed, Stellaria media), deadnettle (henbit deadnettle, Lamium amplexicaule), and canarygrass (littleseed canarygrass, Phalaris minor) were planted in pots containing Redi-Earth® planting medium (Scotts Company, 14111 Scottslawn Road, Marysville, Ohio 43041) comprising spaghnum peat moss, vermiculite, wetting agent and starter nutrients and treated with postemergence applications of test chemicals formulated in the same manner. Plants ranged in height from 2 to 18 cm (1- to 4-leaf stage) for postemergence treatments. Treated plants and controls were maintained in a greenhouse for 13 to 15 days, after which time all species were compared to controls and visually evaluated. Plant response ratings, summarized in Table C, are based on a scale of 0 to 100 where 0 is no effect and 100 is complete control. A dash (-) response means no test result.

large (Lg) crabgrass [3] = assay: Test C postemergence; assay type: in vivo, Digitaria sanguinalis; conditions: Digitaria sanguinalis, post-emergence
Excerpt: as §2, §3

lambsquarters = assay: Test C postemergence; assay type: in vivo, Chenopodium album; conditions: Chenopodium album, post-emergence
Excerpt: as §2, §3

morningglory = assay: Test C postemergence; assay type: in vivo, Ipomoea coccinea; conditions: Ipomoea, post-emergence
Excerpt: as §2, §3

ragweed = assay: Test C postemergence; assay type: in vivo, Ambrosia elatior; conditions: Ambrosia artemisiifolia, post-emergence
Excerpt: as §2, §3

wild oat = assay: Test C postemergence; assay type: in vivo, Avena fatua; conditions: Avena fatua, post-emergence
Excerpt: as §2, §3

[4] = 125 g ai/ha, 0 to 100 scale where 0 is no effect and 100 is complete control
[5] = 500 g ai/ha, 0 to 100 scale, 0 no effect, 100 complete control, approx. 10 days

Compound: Fc1cnc(Oc2ccccc2-n2cc(Br)cn2)nc1 [Compound 10, 2-[2-(4-bromo-1H-pyrazol-1-yl)phenoxy]-5-fluoropyrimidine]
- pest or weed control at 125 g/ha (barnyardgrass; [4]): 60%
- pest or weed control at 500 g/ha (barnyardgrass; [5]): 90%
- pest or weed control at 125 g/ha (large (Lg) crabgrass [1]; [4]): 100%
- pest or weed control at 500 g/ha (large (Lg) crabgrass [1]; [5]): 100%
- pest or weed control at 125 g/ha (pigweed; [4]): 100%
- pest or weed control at 500 g/ha (pigweed; [5]): 100%
- plant injury at 125 g/ha (corn; [4]): 0%
- plant injury at 500 g/ha (corn; [5]): 20%
- pest or weed control at 125 g/ha (large (Lg) crabgrass [2]; 125 g ai/ha, 0 to 100 scale where 0 is no effect and 100 is complete control, read-out: Plant response rating, Crabgrass, Large): 50%
- pest or weed control at 500 g/ha (large (Lg) crabgrass [2]; 500 g ai/ha, 0 to 100 scale, 0 no effect, 100 complete control, read-out: Plant response rating Crabgrass, Large): 80%
- plant injury at 250 g/ha (rice): 0%
- pest or weed control at 125 g/ha (Italian ryegrass; 125 g ai/ha, postemergence, read-out: Plant response rating (0 to 100), Ryegrass, Italian): 5%
- pest or weed control at 250 g/ha (Italian ryegrass; 250 g ai/ha, postemergence, read-out: Plant response rating (0 to 100), Ryegrass, Italian): 10%
- pest or weed control at 31 g/ha (Italian ryegrass; Postemergence, 31 g ai/ha, scale 0 to 100 (0 no effect, 100 complete control), 13 to 15 days, read-out: Plant response rating, Ryegrass, Italian): 0%
- pest or weed control at 62 g/ha (Italian ryegrass; Postemergence, 62 g ai/ha, scale 0 to 100 (0 no effect, 100 complete control), read-out: Plant response rating, Ryegrass, Italian): 0%
- pest or weed control at 125 g/ha (large (Lg) crabgrass [3]; 125 g ai/ha, postemergence, read-out: Plant response rating (0 to 100), Crabgrass, Large): 5%
- pest or weed control at 250 g/ha (large (Lg) crabgrass [3]; 250 g ai/ha, postemergence, read-out: Plant response rating (0 to 100), Crabgrass, Large): 35%
- pest or weed control at 31 g/ha (large (Lg) crabgrass [3]; Postemergence, 31 g ai/ha, scale 0 to 100 (0 no effect, 100 complete control), 13 to 15 days, read-out: Plant response rating, Crabgrass, Large): 5%
- pest or weed control at 62 g/ha (large (Lg) crabgrass [3]; Postemergence, 62 g ai/ha, scale 0 to 100 (0 no effect, 100 complete control), read-out: Plant response rating, Crabgrass, Large): 5%
- pest or weed control at 125 g/ha (lambsquarters; 125 g ai/ha, postemergence, read-out: Plant response rating (0 to 100), Lambsquarters): 75%
- pest or weed control at 250 g/ha (lambsquarters; 250 g ai/ha, postemergence, read-out: Plant response rating (0 to 100), Lambsquarters): 98%
- pest or weed control at 31 g/ha (lambsquarters; Postemergence, 31 g ai/ha, scale 0 to 100 (0 no effect, 100 complete control), 13 to 15 days, read-out: Plant response rating, Lambsquarters): 55%
- pest or weed control at 62 g/ha (lambsquarters; Postemergence, 62 g ai/ha, scale 0 to 100 (0 no effect, 100 complete control), read-out: Plant response rating, Lambsquarters): 55%
- pest or weed control at 125 g/ha (morningglory; 125 g ai/ha, postemergence, read-out: Plant response rating (0 to 100), Morningglory): 65%
- pest or weed control at 250 g/ha (morningglory; 250 g ai/ha, postemergence, read-out: Plant response rating (0 to 100), Morningglory): 85%
- pest or weed control at 31 g/ha (morningglory; Postemergence, 31 g ai/ha, scale 0 to 100 (0 no effect, 100 complete control), 13 to 15 days, read-out: Plant response rating, Morningglory): 40%
- pest or weed control at 62 g/ha (morningglory; Postemergence, 62 g ai/ha, scale 0 to 100 (0 no effect, 100 complete control), read-out: Plant response rating, Morningglory): 65%
- pest or weed control at 125 g/ha (ragweed; 125 g ai/ha, postemergence, read-out: Plant response rating (0 to 100), Ragweed): 55%
- pest or weed control at 250 g/ha (ragweed; 250 g ai/ha, postemergence, read-out: Plant response rating (0 to 100), Ragweed): 80%
- pest or weed control at 31 g/ha (ragweed; Postemergence, 31 g ai/ha, scale 0 to 100 (0 no effect, 100 complete control), 13 to 15 days, read-out: Plant response rating, Ragweed): 50%
- pest or weed control at 62 g/ha (ragweed; Postemergence, 62 g ai/ha, scale 0 to 100 (0 no effect, 100 complete control), read-out: Plant response rating, Ragweed): 50%
- pest or weed control at 125 g/ha (wild oat; 125 g ai/ha, postemergence, read-out: Plant response rating (0 to 100), Oat, Wild): 5%
- pest or weed control at 250 g/ha (wild oat; 250 g ai/ha, postemergence, read-out: Plant response rating (0 to 100), Oat, Wild): 30%
- pest or weed control at 31 g/ha (wild oat; Postemergence, 31 g ai/ha, scale 0 to 100 (0 no effect, 100 complete control), 13 to 15 days, read-out: Plant response rating, Oat, Wild): 0%
- pest or weed control at 62 g/ha (wild oat; Postemergence, 62 g ai/ha, scale 0 to 100 (0 no effect, 100 complete control), read-out: Plant response rating, Oat, Wild): 0%
